The nature of this data set: method code SF-AS, from DOI: 10.1021/jm00114a020, PMID: 1920359. Particulars: pH 7.4.

The values that follow come from the SangsterLogP compilation.

In turn, `CC(=O)OCCS(=O)(=O)c1ccc(S(N)(=O)=O)s1` displayed a logD of 0.11.

For the compound `NS(=O)(=O)c1ccc(S(=O)(=O)CCCO)cc1`, the logD was -0.64.

For `CC(=O)OCCCc1ccc(S(N)(=O)=O)cc1`, the pH-dependent lipophilicity (logD) stood at 0.98.

Take `NS(=O)(=O)c1ccc(SCCCO)c(F)c1`: the log distribution coefficient (logD) is 0.99.

In the case of `NS(=O)(=O)c1ccc(SCCO)c([N+](=O)[O-])c1`, the logD came to 0.38.

Consider `NS(=O)(=O)c1ccc(S(=O)(=O)CCCCO)s1`, for which the logD was -0.34.

`CC(C)(O)CCSc1ccc(S(N)(=O)=O)cc1` returned a logD of 1.4.

`NS(=O)(=O)c1ccc(SCCCO)s1` yielded a logD of 0.85.

Regarding `COC(=O)c1cc(S(N)(=O)=O)ccc1S(=O)(=O)CCCO`, the pH-dependent lipophilicity (logD) is -0.3.

The compound `NS(=O)(=O)c1ccc(S(=O)(=O)CCCO)c([N+](=O)[O-])c1` had a logD of -0.05.

The compound `NS(=O)(=O)c1ccc(S(=O)(=O)CCCO)c(F)c1` yielded a logD of -0.41.

In turn, `Nc1cc(S(N)(=O)=O)ccc1S(=O)(=O)CCCO` had a log distribution coefficient (logD) of -0.48.

For the compound `NS(=O)(=O)c1ccc(SCCO)c(F)c1`, the pH-dependent lipophilicity (logD) turned out to be 0.72.

In turn, `NS(=O)(=O)c1ccc(S(=O)(=O)CCO)c(F)c1` displayed a pH-dependent lipophilicity (logD) of -0.6.

`COCC(=O)OCCCS(=O)(=O)c1ccc(S(N)(=O)=O)s1` yielded a logD of -0.14.

In turn, `Nc1cc(S(N)(=O)=O)ccc1S(=O)(=O)CCO` had a pH-dependent lipophilicity (logD) of -0.6.

Regarding `NS(=O)(=O)c1ccc(SCCO)s1`, the pH-dependent lipophilicity (logD) stood at 0.38.

`NS(=O)(=O)c1ccc(SCCCO)c(Cl)c1` returned a log distribution coefficient (logD) of 1.59.

In turn, `NS(=O)(=O)c1ccc(SCCCCO)cc1` displayed a logD of 0.93.

On to `NS(=O)(=O)c1ccc(SCCO)cc1`, for which the log distribution coefficient (logD) was 0.36.

Turning to `CC(=O)OCCCS(=O)(=O)c1ccc(S(N)(=O)=O)s1`, the logD was found to be 0.17.

For the compound `NS(=O)(=O)c1ccc(CCCCO)cc1`, the logD was found to be 0.57.

Compound `NS(=O)(=O)c1ccc(S(=O)(=O)CCCCO)cc1` yielded a log distribution coefficient (logD) of -0.26.

In turn, `NS(=O)(=O)c1ccc(SCCCO)cc1` gave a log distribution coefficient (logD) of 0.8.

`CC(C)(O)CCS(=O)(=O)c1ccc(S(N)(=O)=O)cc1` registered a logD of -0.09.

`NS(=O)(=O)c1ccc(S(=O)(=O)CCO)s1`: the logD is -0.54.

Turning to `NS(=O)(=O)c1ccc(SCCCCO)s1`, the logD turned out to be 0.95.

On to `NS(=O)(=O)c1ccc(CCCO)cc1`, for which the pH-dependent lipophilicity (logD) was determined as 0.17.

For `NS(=O)(=O)c1ccc(SCCCCCO)cc1`, the logD stood at 1.04.

`CC(=O)OCCCCCc1ccc(S(N)(=O)=O)cc1` yielded a log distribution coefficient (logD) of 1.86.

Regarding `NS(=O)(=O)c1ccc(SCCCCO)c(F)c1`, the log distribution coefficient (logD) came out at 1.28.

In the case of `NS(=O)(=O)c1ccc(S(=O)(=O)CCO)cc1`, the pH-dependent lipophilicity (logD) is -0.85.

In turn, `NS(=O)(=O)c1ccc(SCCCO)c([N+](=O)[O-])c1` displayed a logD of 0.96.

The compound `COC(=O)c1cc(S(N)(=O)=O)ccc1S(=O)(=O)CCO` returned a logD of -0.47.

The compound `NS(=O)(=O)c1ccc(CCCCCO)cc1` displayed a log distribution coefficient (logD) of 1.04.

Turning to `NS(=O)(=O)c1ccc(S(=O)(=O)CCCO)s1`, the logD is -0.36.

Usually logD stands for lipophilicity at a set pH, counting ionised and neutral species. Higher therefore signals a more lipophilic compound.
